Target: T1, mouse Tas2r144 (Mus musculus, UniProt Q7TQB8)
T1 construct: expressed in transfected cells; host or cells: HEK293T-Gα16gust44
Assay: Calcium imaging assay (FLIPR), HEK293T-Gα16gust44 cells transfected with mouse Tas2r144
Type: cell-based
Details: for Δ F/F: Tas2r144
Protocol: This set of bile acids was chosen because of their commercial availability in high purities, their diversity within the class of bile acids and their previous detection and quantitation in human blood. Stock solutions were prepared in DMSO.
As basal growth medium for the HEK293T-Gα16gust44 cell line[17],[59] served Dulbecco’s modified eagle medium (DMEM) (Thermo Fisher Scientific, Darmstadt, Germany) supplemented with 10 % fetal bovine serum (Sigma-Aldrich, Steinheim, Germany), 2 mM L-glutamine (Sigma-Aldrich, Steinheim, Germany), 100 units/ml penicillin (Sigma Aldrich, Steinheim, Germany) and 100 µg/ml streptomycin (Sigma Aldrich, Steinheim, Germany). Growth conditions were 37 °C, 5 % CO2 and saturated air-humidity[60].
HEK293T-Gα16gust44 cells were seeded on poly-D-lysine (10 µg/ml) coated 96-well plates to reach a confluence of 40-60 % the next day. For transient transfection 150 ng of plasmid DNA containing the receptor of interest and 0.3 µl lipofectamine 2000 (Thermo Fisher Scientific, Darmstadt, Germany) per well were used and transfection took place according to the manual of lipofectamine 2000. […] The empty vector DNA (mock) was transfected as negative control[14],[41].
Cells were loaded using the calcium-sensitive fluorescent dye Fluo-4-AM (Abcam, Cambridge, Great Britain) in the presence of 2.5 mM probenecid (Sigma-Aldrich, Steinheim, Germany) the day after transfection[13],[41]. 1 h after loading, cells were washed with C1 buffer using a BioTek Cell Washer, incubated in the dark for half an hour and washed again. For automated agonist application and measurement of fluorescence changes, a FLIPR^TETRA device (Molecular Devices, San José, United States) was used. Viability of cells was tested by application of 100 nM Somatostatin 14 (Bachem, Bubendorf, Switzerland)[42].
Measured data were negative control corrected by subtracting the signal of the mock-transfected cells and exported to Microsoft Excel using the FLIPR software ScreenWorks 4.2. In Microsoft Excel software, standardization of maximum fluorescence intensities to the basal fluorescence and normalization to the buffer-only control was done to calculate the relative fluorescence changes (ΔF/F).
Initial screening experiments performed in duplicate wells were confirmed by at least one replication and representative traces were selected for display. All dose-response relationships were determined by three independent experiments (biological replicates) performed in duplicates (technical replicates). Threshold concentrations, defined as lowest substance concentrations leading to statistically significant elevated fluorescence changes in receptor-transfected cells compared with empty vector-transfected cells, were determined using SigmaPlot with Student’s t-test to evaluate statistical significance (p < 0.01).

T1 sequence (Q7TQB8 whole entry): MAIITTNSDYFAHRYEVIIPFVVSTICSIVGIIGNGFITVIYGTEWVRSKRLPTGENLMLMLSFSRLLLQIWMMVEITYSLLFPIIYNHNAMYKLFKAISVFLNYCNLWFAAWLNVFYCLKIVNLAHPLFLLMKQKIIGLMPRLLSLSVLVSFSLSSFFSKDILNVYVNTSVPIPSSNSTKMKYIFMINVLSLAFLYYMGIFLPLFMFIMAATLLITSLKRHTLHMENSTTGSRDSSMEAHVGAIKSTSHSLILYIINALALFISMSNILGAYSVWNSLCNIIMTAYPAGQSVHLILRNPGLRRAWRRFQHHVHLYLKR

Δ F/F (conc. 0,01 mM): 0.007151
Δ F/F (conc. 0,1 mM): 0.04043
Δ F/F (conc. 0,03 mM): 0.015
Δ F/F (conc. 0,3 mM): 0.08047
Δ F/F (conc. 0,003 mM): 0.00267
RLU (Time 0 s): 0 RLU
RLU (Time 2 s): -31.2125 RLU
RLU (Time 4 s): -43.6447 RLU
RLU (Time 6 s): -0.4257 RLU
RLU (Time 8 s): -5.711 RLU
RLU (Time 12 s): -13.8091 RLU
RLU (Time 14 s): -0.4257 RLU
RLU (Time 16 s): -0.5597 RLU
RLU (Time 18 s): 10.0299 RLU
RLU (Time 18.781 s): -3.913 RLU
RLU (Time 20.781 s): -28.6004 RLU
RLU (Time 22.781 s): -59.2077 RLU
RLU (Time 24.781 s): -17.5148 RLU
RLU (Time 26.781 s): 37.2224 RLU
RLU (Time 28.781 s): 99.9904 RLU
RLU (Time 30.781 s): 135.498 RLU
RLU (Time 32.781 s): 202.624 RLU
RLU (Time 34.781 s): 240.201 RLU
RLU (Time 36.781 s): 276.718 RLU
RLU (Time 38.781 s): 320.611 RLU
RLU (Time 40.781 s): 324.075 RLU
RLU (Time 42.781 s): 335.112 RLU
RLU (Time 44.781 s): 371.949 RLU
RLU (Time 46.781 s): 375.35 RLU
RLU (Time 48.781 s): 395.668 RLU
RLU (Time 50.781 s): 393.283 RLU
RLU (Time 52.781 s): 432.603 RLU
RLU (Time 54.781 s): 444.104 RLU
RLU (Time 56.781 s): 419.562 RLU
RLU (Time 58.781 s): 425.176 RLU
RLU (Time 60.781 s): 431.497 RLU
RLU (Time 62.781 s): 417.317 RLU
RLU (Time 64.781 s): 465.061 RLU
RLU (Time 66.781 s): 447.834 RLU
RLU (Time 68.781 s): 427.827 RLU
RLU (Time 70.781 s): 415.079 RLU
RLU (Time 72.781 s): 432.914 RLU
RLU (Time 74.781 s): 450.52 RLU
RLU (Time 76.781 s): 421.617 RLU
RLU (Time 78.781 s): 441.46 RLU
RLU (Time 80.781 s): 426.566 RLU
RLU (Time 82.781 s): 423.408 RLU
RLU (Time 84.781 s): 393.748 RLU
RLU (Time 86.781 s): 429.403 RLU
RLU (Time 88.781 s): 405.471 RLU
RLU (Time 90.781 s): 401.169 RLU
RLU (Time 92.781 s): 422.993 RLU
RLU (Time 94.781 s): 401.134 RLU
RLU (Time 96.781 s): 381.14 RLU
RLU (Time 98.781 s): 357.346 RLU
RLU (Time 100.781 s): 380.46 RLU
RLU (Time 102.781 s): 368.041 RLU
RLU (Time 104.781 s): 369.437 RLU
RLU (Time 106.781 s): 355.75 RLU
RLU (Time 108.781 s): 354.221 RLU
RLU (Time 110.781 s): 346.013 RLU
RLU (Time 112.781 s): 352.628 RLU
RLU (Time 114.781 s): 328.654 RLU
RLU (Time 116.781 s): 301.02 RLU
RLU (Time 118.781 s): 305.388 RLU
RLU (Time 120.781 s): 301.126 RLU
RLU (Time 122.781 s): 277.354 RLU
RLU (Time 124.781 s): 278.403 RLU
RLU (Time 126.781 s): 268.257 RLU
RLU (Time 128.781 s): 264.093 RLU
RLU (Time 130.781 s): 273.404 RLU
RLU (Time 132.781 s): 241.449 RLU
RLU (Time 134.781 s): 241.405 RLU
RLU (Time 136.781 s): 246.641 RLU
RLU (Time 137.562 s): 213.654 RLU
RLU (Time 143.562 s): 221.818 RLU
RLU (Time 149.562 s): 207.299 RLU
RLU (Time 155.562 s): 180.281 RLU
RLU (Time 161.562 s): 165.822 RLU
RLU (Time 167.562 s): 177.105 RLU
RLU (Time 173.562 s): 151.305 RLU
RLU (Time 179.562 s): 140.777 RLU
RLU (Time 185.562 s): 121.278 RLU
RLU (Time 191.562 s): 122.229 RLU
RLU (Time 197.562 s): 118.034 RLU
RLU (Time 203.562 s): 110.818 RLU
RLU (Time 209.562 s): 87.4457 RLU
RLU (Time 215.562 s): 107.926 RLU
RLU (Time 221.562 s): 45.9427 RLU
RLU (Time 227.562 s): 30.7626 RLU
RLU (Time 233.562 s): 60.9884 RLU
RLU (Time 239.562 s): 58.9568 RLU
RLU (Time 245.562 s): 54.3153 RLU
RLU (Time 293.562 s): 51.7559 RLU
RLU (Time 299.562 s): 74.5788 RLU
RLU (Time 305.562 s): 55.2043 RLU
RLU (Time 311.562 s): 49.25 RLU
RLU (Time 317.562 s): 60.65 RLU
RLU (Time 323.562 s): 55.6278 RLU
RLU (Time 329.562 s): 55.0836 RLU
RLU (Time 335.562 s): 69.3242 RLU
RLU (Time 341.562 s): 66.607 RLU
RLU (Time 347.562 s): 79.0246 RLU
RLU (Time 353.562 s): 84.7807 RLU
RLU (Time 359.562 s): 64.803 RLU
Activation threshold concentration Tas2r144 (p < 0.01 vs empty vector): 100 µM
Structure (SMILES): C[C@H](CCC(=O)NCC(=O)O)[C@H]1CC[C@H]2[C@@H]3[C@H](O)C[C@@H]4C[C@H](O)CC[C@]4(C)[C@H]3C[C@H](O)[C@]12C [Glycocholic Acid, glycocholic acid]

— PMC10247784, “Physiological activation of human and mouse bitter taste receptors by bile acids” (Communications Biology, 2023)
